Source: patent US20170182088A1, “METHOD AND APPARATUS FOR ADMINISTERING NITRIC OXIDE WITH SUPPLEMENTAL DRUGS” (GENO LLC, priority 2015, published 2017)

What was measured:
PMN (Neutrophil) = settings: cited from earlier work
TRPM2 = molecular target: T1, TRPM2 (Mus musculus, UniProt Q91YD4); settings: responses comparable to fMLP-stimulated TRPM2 KO PMN; cited from earlier work
T1 construct: endogenous in cells; host or cells: PMN (neutrophils), fMLP-stimulated; work retold from a cited abstract (J. Immunol. 2010, 184)
T1 sequence (Q91YD4 whole entry): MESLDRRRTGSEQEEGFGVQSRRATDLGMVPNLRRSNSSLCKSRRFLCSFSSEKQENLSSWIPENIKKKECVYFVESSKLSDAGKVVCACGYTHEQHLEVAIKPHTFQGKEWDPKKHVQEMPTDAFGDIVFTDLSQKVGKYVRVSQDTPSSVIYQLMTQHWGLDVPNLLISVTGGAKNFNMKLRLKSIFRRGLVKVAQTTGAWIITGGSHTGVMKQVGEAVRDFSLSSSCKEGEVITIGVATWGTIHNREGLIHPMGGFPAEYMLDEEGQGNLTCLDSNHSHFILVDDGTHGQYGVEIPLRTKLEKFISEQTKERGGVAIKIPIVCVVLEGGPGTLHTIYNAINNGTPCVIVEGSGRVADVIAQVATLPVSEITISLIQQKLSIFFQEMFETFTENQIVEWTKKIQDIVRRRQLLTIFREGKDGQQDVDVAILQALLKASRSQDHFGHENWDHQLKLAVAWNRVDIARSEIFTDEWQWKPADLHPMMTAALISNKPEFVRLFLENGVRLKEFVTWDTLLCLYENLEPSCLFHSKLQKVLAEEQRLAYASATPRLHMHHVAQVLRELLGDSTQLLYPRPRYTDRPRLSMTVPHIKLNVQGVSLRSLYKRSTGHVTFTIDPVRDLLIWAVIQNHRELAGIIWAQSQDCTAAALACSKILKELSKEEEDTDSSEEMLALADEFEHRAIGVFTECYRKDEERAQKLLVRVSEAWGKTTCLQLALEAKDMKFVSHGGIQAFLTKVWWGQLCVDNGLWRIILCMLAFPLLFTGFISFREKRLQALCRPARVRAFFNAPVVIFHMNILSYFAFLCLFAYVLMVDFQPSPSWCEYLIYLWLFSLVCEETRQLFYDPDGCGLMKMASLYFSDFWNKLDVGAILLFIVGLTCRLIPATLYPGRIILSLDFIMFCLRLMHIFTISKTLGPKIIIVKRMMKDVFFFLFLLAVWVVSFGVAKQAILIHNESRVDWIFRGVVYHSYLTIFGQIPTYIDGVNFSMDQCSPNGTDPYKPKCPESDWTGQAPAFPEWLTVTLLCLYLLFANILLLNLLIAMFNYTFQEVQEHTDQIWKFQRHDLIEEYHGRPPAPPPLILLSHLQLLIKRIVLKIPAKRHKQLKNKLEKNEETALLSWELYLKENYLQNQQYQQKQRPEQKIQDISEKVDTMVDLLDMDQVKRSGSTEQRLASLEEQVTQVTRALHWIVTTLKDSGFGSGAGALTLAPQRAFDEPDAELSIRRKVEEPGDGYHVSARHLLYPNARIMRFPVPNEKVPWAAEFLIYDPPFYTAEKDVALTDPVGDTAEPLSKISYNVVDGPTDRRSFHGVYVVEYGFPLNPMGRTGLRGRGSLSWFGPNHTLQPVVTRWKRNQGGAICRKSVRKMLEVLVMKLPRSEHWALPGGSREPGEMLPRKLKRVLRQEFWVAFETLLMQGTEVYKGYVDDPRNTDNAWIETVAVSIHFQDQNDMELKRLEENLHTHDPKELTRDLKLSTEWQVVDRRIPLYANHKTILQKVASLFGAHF

Nox4 = molecular target: T2, Nox4 (Homo sapiens, UniProt Q9NPH5); settings: cited from earlier work
T2 construct: endogenous in cells; host or cells: pulmonary vascular wall cells under hypoxia
T2 sequence (Q9NPH5 1-578): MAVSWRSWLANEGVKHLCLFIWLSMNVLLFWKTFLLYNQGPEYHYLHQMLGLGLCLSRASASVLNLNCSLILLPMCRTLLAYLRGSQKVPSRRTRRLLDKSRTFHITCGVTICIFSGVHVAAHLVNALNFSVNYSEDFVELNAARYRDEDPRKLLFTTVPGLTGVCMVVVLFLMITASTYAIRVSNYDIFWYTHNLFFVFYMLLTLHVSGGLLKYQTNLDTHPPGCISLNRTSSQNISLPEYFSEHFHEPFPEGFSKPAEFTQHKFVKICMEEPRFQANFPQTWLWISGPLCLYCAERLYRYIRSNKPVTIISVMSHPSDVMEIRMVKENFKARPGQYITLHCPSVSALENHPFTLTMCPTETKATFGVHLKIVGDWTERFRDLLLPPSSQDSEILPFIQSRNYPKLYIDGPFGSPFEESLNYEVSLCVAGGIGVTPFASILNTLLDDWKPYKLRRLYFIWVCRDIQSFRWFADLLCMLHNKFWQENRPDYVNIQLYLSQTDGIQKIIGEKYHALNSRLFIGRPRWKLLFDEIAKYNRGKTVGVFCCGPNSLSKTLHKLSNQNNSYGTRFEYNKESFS
T2 sequence (P13498 1-195 partner): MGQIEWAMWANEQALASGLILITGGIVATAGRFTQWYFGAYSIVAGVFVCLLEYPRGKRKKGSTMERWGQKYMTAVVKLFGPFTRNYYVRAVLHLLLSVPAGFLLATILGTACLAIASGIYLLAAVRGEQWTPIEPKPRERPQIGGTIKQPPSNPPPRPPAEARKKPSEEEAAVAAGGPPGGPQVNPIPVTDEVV

[1] = system: mice with intratracheal administration of LPS; assay: LPS-induced lung injury in mice (intratracheal LPS); format: in vivo; settings: for lung injury after intratracheal LPS: 2% H2 and/or 20 ppm NO for 3 hours starting at 5 minutes or 3 hours after LPS; for pulmonary inflammation and cell apoptosis: H2 and/or NO treatment
NF-κB = assay: LPS-induced pulmonary NF-κB activation; format: in vivo, mice; settings: H2 and/or NO treatment
polymicrobial sepsis = assay: Polymicrobial sepsis-induced lung injury; format: in vivo; settings: H2 and/or NO treatment
From the text: However until applicants' discovery, there has not been a successful combination of hydrogen gas with breathing gas using the claimed apparatus and methods. Applicants have discovered that NO's effect as an antioxidant may be enhanced by eliminating highly reactive by-products of NO inhalation such as peroxynitrite, by adding H2 to inhaled NO gas.

brain injury = settings: inhaled, acute rat model; cited from earlier work
CTGF [2] = settings: fibroblasts exposed to TGF-β; cited from earlier work
CTGF [3] = settings: infusion, scleroderma patients; cited from earlier work
Angiotensin II = settings: cited from earlier work
rats = settings: inhaled; cited from earlier work
neonatal piglets = settings: short-term inhaled exposure; cited from earlier work
neonatal rats = settings: cited from earlier work

## Clc1ccc(COC(Cn2ccnc2)c2ccc(Cl)cc2Cl)cc1 (stereo not drawn) [Econazole]
PMN (Neutrophil)
  PMN directionality: significantly inhibited
TRPM2
  Ca2+ influx: blocked

## O=C(O)c1ccccc1Nc1cccc(C(F)(F)F)c1 [FA]
TRPM2
  Ca2+ influx: blocked

## CN(C)c1cccc(-c2c3c(=O)n(-c4ccccc4Cl)[nH]c3cc(=O)n2C)c1 [GKT137831]
Nox4
  hypoxia-induced pulmonary vascular cell proliferation: attenuates

## [HH] [H2, hydrogen]
[1]
  lung injury after intratracheal LPS: significantly improved
  pulmonary inflammation and cell apoptosis: down-regulated
NF-κB
  LPS-induced pulmonary early and late NF-κB activation: inhibited
Polymicrobial sepsis
  lung injury in polymicrobial sepsis: significantly attenuated
Brain injury
  brain injury associated with focal ischemia-reperfusion: markedly suppressed

## CC#CCC(C)[C@H](O)/C=C/[C@@H]1[C@H]2C/C(=C/CCCC(=O)O)C[C@H]2C[C@H]1O (stereo partly drawn) [Iloprost]
CTGF [2]
  increase in collagen synthesis: blocks
  induction of CTGF: blocks
CTGF [3]
  dermal CTGF levels: marked decrease

## CC(=O)N[C@@H](CS)C(=O)O [N-acetylcysteine]
Angiotensin II
  Ang II-stimulated DNA synthesis, cell migration, pro-collagen α1(I) mRNA expression, secretion of TGF-β1 and inflammatory cytokines: attenuated

## [N]=O [NO, nitric oxide]
[1]
  lung injury after intratracheal LPS: significantly improved
  pulmonary inflammation and cell apoptosis: down-regulated
NF-κB
  LPS-induced pulmonary early and late NF-κB activation: inhibited
Polymicrobial sepsis
  lung injury in polymicrobial sepsis: significantly attenuated
rats
  survival in high O2 exposure: increase
Neonatal piglets
  lung collagen accumulation: increases

## COC(=O)[C@@H](N)CCCNC(=N)N[N+](=O)[O-] [Nw-nitro-l-arginine methyl ester]
Neonatal rats
  survival on exposure to >95% O2 compared with control rats: significantly fewer survived

## O=O [O2, oxygen]
Neonatal piglets
  lung collagen accumulation: increases

## Clc1ccccc1C(c1ccccc1)(c1ccccc1)n1ccnc1 [clotrimazole]
PMN (Neutrophil)
  PMN directionality: significantly inhibited
TRPM2
  Ca2+ influx: blocked

## c1ccc2c(c1)[I+]c1ccccc1-2 [diphenylene iodonium]
Angiotensin II
  Ang II-stimulated DNA synthesis, cell migration, pro-collagen α1(I) mRNA expression, secretion of TGF-β1 and inflammatory cytokines: attenuated
